Read-outs that look alike come from different tables or passages of the source. Numbered stars: 1 amine (or outer) side, 2 acyl side, 3 side chain; on linkers, the order of the positions; unused ones are H or OH. Bridge positions count the residues as written; N and C are the ends. Square brackets hold non-standard residues; d marks the D form. Side chains are listed from the residue outwards. Peptide text beside a SMILES is read from it. * marks the point of attachment. DOTA = O=C(O)CN1CCN(CC(=O)O)CCN(CC(=O)*)CCN(CC(=O)O)CC1; X16 = CNC(=N)N(C)CCC[C@H](N[*:1])C(=O)[*:2]; Phe(3-Cl) = N[C@@H](Cc1cccc(Cl)c1)C(=O)O; Phe(4-Cl) = N[C@@H](Cc1ccc(Cl)cc1)C(=O)O; X1 = O=C(CC1CCN([*:1])CC1)[*:2]; Cit = NC(=O)NCCC[C@H](N)C(=O)O; Lys(Me) = CNCCCC[C@H](N)C(=O)O; Tle = CC(C)(C)[C@H](N)C(=O)O; AEEA = NCCOCCOCC(=O)O; Aib = CC(C)(N)C(=O)O; CO = O=C([*:1])[*:2]; NHBu = CCCCN*
Experiments:
[1] = biological target: T1, PSMA-expressing C4-2 cells (Homo sapiens, UniProt Q04609); experiment: FACS binding assay (competition with 50 nM PSM-0183); settings: read-out: pIC50 [C4-2] CAT (converted)
T1 construct: PSMA-expressing C4-2 cells (ATCC, Cat. No. CRL-3314) were cultured in RPMI-1640; host or cells: C4-2 cells
T1 sequence (Q04609 whole entry): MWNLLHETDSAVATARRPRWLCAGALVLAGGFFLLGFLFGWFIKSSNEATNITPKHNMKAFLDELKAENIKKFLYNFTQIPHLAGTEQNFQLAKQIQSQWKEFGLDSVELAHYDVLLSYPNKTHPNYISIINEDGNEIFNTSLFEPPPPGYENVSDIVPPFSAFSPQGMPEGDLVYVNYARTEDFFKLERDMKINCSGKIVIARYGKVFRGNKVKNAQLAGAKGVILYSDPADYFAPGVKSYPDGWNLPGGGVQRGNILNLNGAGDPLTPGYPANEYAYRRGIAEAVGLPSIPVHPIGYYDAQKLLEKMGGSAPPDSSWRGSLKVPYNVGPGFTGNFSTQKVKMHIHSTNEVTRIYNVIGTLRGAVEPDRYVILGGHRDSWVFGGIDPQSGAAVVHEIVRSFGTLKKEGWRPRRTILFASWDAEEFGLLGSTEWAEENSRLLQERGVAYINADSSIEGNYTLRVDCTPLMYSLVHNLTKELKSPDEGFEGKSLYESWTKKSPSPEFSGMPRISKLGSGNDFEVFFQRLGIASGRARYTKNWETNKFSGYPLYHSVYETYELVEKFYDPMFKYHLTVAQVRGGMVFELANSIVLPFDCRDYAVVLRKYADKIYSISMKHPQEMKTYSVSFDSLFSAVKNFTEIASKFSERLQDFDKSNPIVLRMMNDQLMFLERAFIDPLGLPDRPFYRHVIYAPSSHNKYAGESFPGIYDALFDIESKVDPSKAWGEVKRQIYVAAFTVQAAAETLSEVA
In short: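 C4-2 cells were incubated 1 h at 4 °C with 50 nM AF488-labelled peptide PSM-0183 plus increasing test compound concentrations, then washed twice in ice-cold buffer. Median fluorescence in the AF488 channel was read by flow cytometry. IC50/pIC50 was derived by 4PL fitting of MFI versus concentration.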

[2] = biological target: T2, Fc-fusion protein of human PSMA (hPSMA-Fc) (Homo sapiens, UniProt Q04609); experiment: Surface plasmon resonance assay (Biacore T200, single cycle kinetic); assay type: binding; settings: read-out: pKD CAT (converted)
T2 construct: purchased Acro Biosystems PSA-H5264
T2 sequence (Q04609 44-750 limits assumed): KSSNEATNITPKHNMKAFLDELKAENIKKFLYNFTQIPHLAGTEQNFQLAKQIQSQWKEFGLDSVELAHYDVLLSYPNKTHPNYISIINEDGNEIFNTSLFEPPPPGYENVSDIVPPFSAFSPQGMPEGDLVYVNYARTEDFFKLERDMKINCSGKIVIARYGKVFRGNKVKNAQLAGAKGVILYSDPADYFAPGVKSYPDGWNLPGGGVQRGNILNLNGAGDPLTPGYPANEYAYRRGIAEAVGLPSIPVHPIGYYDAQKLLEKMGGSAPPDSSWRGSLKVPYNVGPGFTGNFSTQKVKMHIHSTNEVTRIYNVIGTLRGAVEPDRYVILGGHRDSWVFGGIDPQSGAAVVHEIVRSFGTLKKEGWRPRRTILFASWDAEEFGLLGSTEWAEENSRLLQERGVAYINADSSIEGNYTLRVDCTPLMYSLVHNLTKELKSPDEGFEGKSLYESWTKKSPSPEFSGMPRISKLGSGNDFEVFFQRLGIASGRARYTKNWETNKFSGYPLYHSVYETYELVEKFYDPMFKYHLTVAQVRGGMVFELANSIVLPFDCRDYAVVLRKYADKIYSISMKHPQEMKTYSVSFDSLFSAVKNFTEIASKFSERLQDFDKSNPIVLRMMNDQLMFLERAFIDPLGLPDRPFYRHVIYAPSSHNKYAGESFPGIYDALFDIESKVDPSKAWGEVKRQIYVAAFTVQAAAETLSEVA
In short: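 hPSMA-Fc was captured (~1000 RU) on an Fc-binding-peptide CM5 chip, and compounds were run in single cycle kinetic mode at 25° C in HBST with 0.1% DMSO. Double-blank-corrected sensorgrams were fitted to a 1:1 Langmuir model to give KD, reported as pKD.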

[3] = FACS binding, PSMA-expressing C4-2 cells, pIC50 category
[4] = PSMA SPR assay, hPSMA-Fc, 25° C., pKD category
[5] = FACS binding, C4-2 cells, competition with 50 nM PSM-0183, category
[6] = SPR, hPSMA-Fc, single cycle kinetic, 25° C., category
[7] = FACS binding, C4-2 cells, category

CC(=O)N[C@H](C(=O)NC(C)(C)C(=O)N[C@@H](Cc1ccccc1)C(=O)N[C@@H]1CSSC[C@@H](C(=O)N[C@H](C(=O)N[C@H](C(N)=O)[C@@H](C)O)C(C)(C)C)NC(=O)[C@H](CC(N)=O)NC(=O)C(C)(C)NC(=O)[C@H](CCCNC(=N)N)NC(=O)[C@H](CCCCN)NC1=O)[C@@H](C)O [PSM-0348, Ac-Thr-Aib-Phe-[cys-Lys-Arg-Aib-Asn-Cys]-Tle-Thr-NH2] (Ac-T[Aib]F[dC]KR[Aib]NC[Tle]T-NH2; disulfide 4-9)
IC50 [1, 3]: > 3160 nM | Kd [2, 4]: > 501 nM

C[C@@H](O)[C@H](NC(=O)[C@@H](NC(=O)[C@@H]1CSSC[C@H](NC(=O)[C@H](Cc2ccccc2)NC(=O)C(C)(C)NC(=O)[C@@H](NC(=O)CC2CCN(C(=O)CN3CCN(CC(=O)O)CCN(CC(=O)O)CCN(CC(=O)O)CC3)CC2)C(C)(C)C)C(=O)N[C@@H](CCCCN)C(=O)N[C@@H](CCCNC(=N)N)C(=O)NC(C)(C)C(=O)N[C@@H](CC(N)=O)C(=O)N1)C(C)(C)C)C(N)=O [PSM-0198, DOTA-Cmp-Tle-Aib-Phe-[Cys-Lys-Arg-Aib-Asn-Cys]-Tle-Thr-NH2] ({DOTA}-[X1][Tle][Aib]FCKR[Aib]NC[Tle]T-NH2; disulfide 5-10)
IC50 [1, 5]: 1260 to 3160 nM | Kd [2, 6]: 126 to 501 nM

CC(=O)N[C@H](C(=O)NC(C)(C)C(=O)N[C@@H](Cc1ccc(Cl)cc1)C(=O)N[C@H]1CSSC[C@@H](C(=O)N[C@H](C(=O)N[C@H](C(=O)N2CCC(CC(=O)N[C@H](CCCCNC(=O)CN3CCN(CC(=O)O)CCN(CC(=O)O)CCN(CC(=O)O)CC3)C(N)=O)CC2)[C@@H](C)O)C(C)(C)C)NC(=O)[C@H](CC(N)=O)NC(=O)C(C)(C)NC(=O)[C@H](CCCNC(=N)N)NC(=O)[C@H](CCCCN)NC1=O)[C@@H](C)O [PSM-0482, Ac-Thr-Aib-Pcf-[Cys-Lys-Arg-Aib-Asn-Cys]-Tle-Thr-Cmp-lys(DOTA)-NH2] (Ac-T[Aib][Phe(4-Cl)]CKR[Aib]NC[Tle]T[X1][dK](DOTA)-NH2; disulfide 4-9)
IC50 ([1]; pIC50 category of FACS binding, C4-2 cells): < 200 nM | Kd ([2]; pKD category for PSMA SPR activity assay, hPSMA-Fc, 25° C.): < 12.6 nM

CNCCCC[C@@H]1NC(=O)[C@@H](NC(=O)[C@H](Cc2ccc(Cl)cc2)NC(=O)C(C)(C)NC(=O)[C@@H](NC(=O)CC2CCN(C(=O)CN3CCN(CC(=O)O)CCN(CC(=O)O)CCN(CC(=O)O)CC3)CC2)[C@@H](C)O)CSSC[C@@H](C(=O)N[C@H](C(=O)N[C@H](C(N)=O)[C@@H](C)O)C(C)(C)C)NC(=O)[C@H](CC(N)=O)NC(=O)C(C)(C)NC(=O)[C@H](CCCN(C)C(=N)NC)NC1=O [PSM-0590, DOTA-Cmp-Thr-Aib-Pcf-[Cys-Lys(Me)-RMe2a-Aib-Asn-Cys]-Tle-Thr-NH2] ({DOTA}-[X1]T[Aib][Phe(4-Cl)]C[Lys(Me)][X16][Aib]NC[Tle]T-NH2; disulfide 5-10)
IC50 [1, 7]: < 200 nM | Kd ([2]; PSMA SPR assay, category): < 12.6 nM

CC(=O)N[C@H](C(=O)NC(C)(C)C(=O)N[C@@H](Cc1ccc(Cl)cc1)C(=O)N[C@H]1CSSC[C@@H](C(=O)N[C@H](C(=O)N[C@H](C(N)=O)[C@@H](C)O)C(C)(C)C)NC(=O)[C@H](CC(C)C)NC(=O)C(C)(C)NC(=O)[C@H](CCCNC(=N)N)NC(=O)[C@H](CCCCN)NC1=O)[C@@H](C)O [PSM-0584, Ac-Thr-Aib-Pcf-[Cys-Lys-Cit-Aib-Leu-Cys]-Tle-Thr-NH2] (Ac-T[Aib][Phe(4-Cl)]CKR[Aib]LC[Tle]T-NH2; disulfide 4-9)
IC50 [1, 7]: < 200 nM | Kd ([2]; PSMA SPR assay, category): < 12.6 nM

CCCCNC(=O)N[C@H](C(=O)NC(C)(C)C(=O)N[C@@H](Cc1cccc(Cl)c1)C(=O)N[C@H]1CSSC[C@@H](C(=O)N[C@H](C(=O)N[C@H](C(=O)N2CCC(CC(=O)N[C@H](CCCCNC(=O)CN3CCN(CC(=O)O)CCN(CC(=O)O)CCN(CC(=O)O)CC3)C(N)=O)CC2)[C@@H](C)O)C(C)(C)C)NC(=O)[C@H](CC(N)=O)NC(=O)C(C)(C)NC(=O)[C@H](CCCNC(N)=O)NC(=O)[C@H](CCCCN)NC1=O)[C@@H](C)O [PSM-0207, nBuCAyl-Thr-Aib-Mcf-[Cys-Lys-Cit-Aib-Asn-Cys]-Tle-Thr-Cmp-lys(DOTA)-NH2] ({NHBu-CO}-T[Aib][Phe(3-Cl)]CK[Cit][Aib]NC[Tle]T[X1][dK](DOTA)-NH2; disulfide 4-9)
IC50 [1, 5]: < 200 nM | Kd [2, 6]: 12.6 to 126 nM

CC(=O)N[C@H](C(=O)NC(C)(C)C(=O)N[C@@H](Cc1cccc(Cl)c1)C(=O)N[C@H]1CSSC[C@@H](C(=O)N[C@H](C(=O)N[C@H](C(N)=O)[C@@H](C)O)C(C)(C)C)NC(=O)[C@H](CC(N)=O)NC(=O)[C@H](CCCCNC(=O)COCCOCCNC(=O)CN2CCN(CC(=O)O)CCN(CC(=O)O)CCN(CC(=O)O)CC2)NC(=O)[C@H](CCCNC(N)=O)NC(=O)[C@H](CCCCN)NC1=O)[C@@H](C)O [PSM-0284, Ac-Thr-Aib-Mcf-[Cys-Lys-Cit-Lys(DOTA-020c)-Asn-Cys]-Tle-Thr-NH2] (Ac-T[Aib][Phe(3-Cl)]CK[Cit]K([AEEA-DOTA])NC[Tle]T-NH2; disulfide 4-9)
IC50 [1, 3]: < 200 nM | Kd [2, 4]: 12.6 to 126 nM
